Reference: ChEMBL document CHEMBL5291721, “A preclinical secondary pharmacology resource illuminates target-adverse drug reaction associations of marketed drugs” (Nat Commun, 2023)

Assays:
[1] = molecular target: T1, Alpha-2A adrenergic receptor (Homo sapiens, UniProt P08913)
T1 sequence (P08913 whole entry): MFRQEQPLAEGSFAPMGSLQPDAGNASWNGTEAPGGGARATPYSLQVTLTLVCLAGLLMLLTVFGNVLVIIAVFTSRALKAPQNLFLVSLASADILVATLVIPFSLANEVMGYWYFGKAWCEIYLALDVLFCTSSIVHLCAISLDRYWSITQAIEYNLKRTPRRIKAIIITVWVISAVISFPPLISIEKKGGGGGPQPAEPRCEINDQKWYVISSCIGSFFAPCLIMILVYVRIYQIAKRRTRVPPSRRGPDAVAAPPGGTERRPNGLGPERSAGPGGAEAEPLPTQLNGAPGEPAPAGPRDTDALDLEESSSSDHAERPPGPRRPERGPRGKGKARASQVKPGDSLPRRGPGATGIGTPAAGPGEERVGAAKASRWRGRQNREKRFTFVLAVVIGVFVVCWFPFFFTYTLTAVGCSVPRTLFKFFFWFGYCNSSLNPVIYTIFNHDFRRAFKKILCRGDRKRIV

D(1A) dopamine receptor = D(1A) dopamine receptor (Homo sapiens, UniProt P21728)
Chain of D(1A) dopamine receptor (P21728 whole entry): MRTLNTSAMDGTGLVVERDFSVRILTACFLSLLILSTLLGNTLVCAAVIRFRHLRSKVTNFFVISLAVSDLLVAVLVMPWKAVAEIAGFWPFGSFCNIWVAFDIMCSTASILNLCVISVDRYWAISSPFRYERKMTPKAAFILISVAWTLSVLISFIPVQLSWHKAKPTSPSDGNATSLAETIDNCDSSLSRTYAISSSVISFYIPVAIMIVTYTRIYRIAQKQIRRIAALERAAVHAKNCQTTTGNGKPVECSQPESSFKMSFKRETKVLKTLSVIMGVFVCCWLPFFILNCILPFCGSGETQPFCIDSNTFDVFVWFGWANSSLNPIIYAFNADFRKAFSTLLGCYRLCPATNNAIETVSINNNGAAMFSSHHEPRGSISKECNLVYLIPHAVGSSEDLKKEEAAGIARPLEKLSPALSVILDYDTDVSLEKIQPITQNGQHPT

Histamine H3 receptor [2] = molecular target: T2, Histamine H3 receptor (Homo sapiens, UniProt Q9Y5N1)
T2 sequence (Q9Y5N1 whole entry): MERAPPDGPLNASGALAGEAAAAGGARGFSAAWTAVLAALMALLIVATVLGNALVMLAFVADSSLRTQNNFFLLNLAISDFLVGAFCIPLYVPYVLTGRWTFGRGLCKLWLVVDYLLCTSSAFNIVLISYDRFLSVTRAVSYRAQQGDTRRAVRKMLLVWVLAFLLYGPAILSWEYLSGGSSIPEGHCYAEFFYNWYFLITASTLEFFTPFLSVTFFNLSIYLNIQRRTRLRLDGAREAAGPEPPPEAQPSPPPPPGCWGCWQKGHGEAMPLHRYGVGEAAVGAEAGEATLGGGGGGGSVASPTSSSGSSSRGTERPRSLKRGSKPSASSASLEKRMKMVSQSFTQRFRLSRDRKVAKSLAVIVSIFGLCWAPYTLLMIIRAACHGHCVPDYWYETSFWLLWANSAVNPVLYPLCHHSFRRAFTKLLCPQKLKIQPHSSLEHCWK

Thromboxane A2 receptor [3] = molecular target: T3, Thromboxane A2 receptor (Homo sapiens, UniProt P21731); format: functional, cell-based
T3 sequence (P21731 whole entry): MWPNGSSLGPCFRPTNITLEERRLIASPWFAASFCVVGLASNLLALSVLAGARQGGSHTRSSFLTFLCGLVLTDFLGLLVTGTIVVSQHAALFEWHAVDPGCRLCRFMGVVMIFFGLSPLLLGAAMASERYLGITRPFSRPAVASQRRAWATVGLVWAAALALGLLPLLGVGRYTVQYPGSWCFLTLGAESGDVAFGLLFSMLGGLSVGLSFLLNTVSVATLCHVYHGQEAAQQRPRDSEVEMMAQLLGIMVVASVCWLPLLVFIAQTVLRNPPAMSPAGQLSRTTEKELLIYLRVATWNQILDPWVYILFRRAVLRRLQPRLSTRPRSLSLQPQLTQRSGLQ

[4] = molecular target: T4, Alpha-1A adrenergic receptor (Homo sapiens, UniProt P35348); format: functional, cell-based
T4 sequence (P35348 whole entry): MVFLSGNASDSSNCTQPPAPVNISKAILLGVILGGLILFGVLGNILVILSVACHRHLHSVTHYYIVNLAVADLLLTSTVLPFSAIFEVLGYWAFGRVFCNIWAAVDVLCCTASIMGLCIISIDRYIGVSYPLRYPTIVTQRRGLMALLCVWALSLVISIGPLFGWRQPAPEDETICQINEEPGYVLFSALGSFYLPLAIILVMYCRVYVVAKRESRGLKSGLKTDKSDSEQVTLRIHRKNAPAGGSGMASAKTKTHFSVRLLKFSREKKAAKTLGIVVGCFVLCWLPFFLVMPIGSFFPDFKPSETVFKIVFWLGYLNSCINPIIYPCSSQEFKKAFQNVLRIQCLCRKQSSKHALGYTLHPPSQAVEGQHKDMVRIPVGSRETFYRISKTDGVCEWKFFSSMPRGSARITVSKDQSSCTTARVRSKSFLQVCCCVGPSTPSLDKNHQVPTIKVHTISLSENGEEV

Cannabinoid receptor 1 = Cannabinoid receptor 1 (Homo sapiens, UniProt P21554); format: functional, cell-based
Chain of Cannabinoid receptor 1 (P21554 whole entry): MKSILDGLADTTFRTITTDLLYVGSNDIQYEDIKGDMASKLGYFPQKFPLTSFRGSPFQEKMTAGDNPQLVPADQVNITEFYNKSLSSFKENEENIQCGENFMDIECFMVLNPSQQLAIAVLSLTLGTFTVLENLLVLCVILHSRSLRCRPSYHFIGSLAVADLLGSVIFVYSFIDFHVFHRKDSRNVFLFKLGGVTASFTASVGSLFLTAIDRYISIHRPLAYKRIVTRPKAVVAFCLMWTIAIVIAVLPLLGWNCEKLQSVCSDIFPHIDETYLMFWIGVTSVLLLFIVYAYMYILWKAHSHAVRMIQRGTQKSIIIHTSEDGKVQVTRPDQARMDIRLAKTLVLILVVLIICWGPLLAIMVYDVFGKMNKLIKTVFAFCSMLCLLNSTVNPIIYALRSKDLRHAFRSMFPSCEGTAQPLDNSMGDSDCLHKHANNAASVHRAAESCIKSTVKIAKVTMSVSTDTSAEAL

Histamine H3 receptor [5] = molecular target: T2, Histamine H3 receptor; remark: listed apart in the source
[6] = molecular target: Beta-2 adrenergic receptor (Homo sapiens, UniProt P07550)
Chain of Beta-2 adrenergic receptor (P07550 whole entry): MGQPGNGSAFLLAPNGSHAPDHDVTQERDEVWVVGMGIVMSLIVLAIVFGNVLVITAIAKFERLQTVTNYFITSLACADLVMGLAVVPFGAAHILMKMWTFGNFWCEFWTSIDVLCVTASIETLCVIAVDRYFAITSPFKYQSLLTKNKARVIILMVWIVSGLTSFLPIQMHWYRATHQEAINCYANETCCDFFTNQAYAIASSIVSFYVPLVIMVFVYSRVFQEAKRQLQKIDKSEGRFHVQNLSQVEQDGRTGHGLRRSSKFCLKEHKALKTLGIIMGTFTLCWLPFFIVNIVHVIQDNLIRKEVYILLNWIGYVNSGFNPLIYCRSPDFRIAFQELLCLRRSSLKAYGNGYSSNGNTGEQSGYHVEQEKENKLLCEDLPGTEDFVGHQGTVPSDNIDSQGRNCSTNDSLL

[7] = molecular target: Kappa-type opioid receptor (Homo sapiens, UniProt P41145)
Chain of Kappa-type opioid receptor (P41145 whole entry): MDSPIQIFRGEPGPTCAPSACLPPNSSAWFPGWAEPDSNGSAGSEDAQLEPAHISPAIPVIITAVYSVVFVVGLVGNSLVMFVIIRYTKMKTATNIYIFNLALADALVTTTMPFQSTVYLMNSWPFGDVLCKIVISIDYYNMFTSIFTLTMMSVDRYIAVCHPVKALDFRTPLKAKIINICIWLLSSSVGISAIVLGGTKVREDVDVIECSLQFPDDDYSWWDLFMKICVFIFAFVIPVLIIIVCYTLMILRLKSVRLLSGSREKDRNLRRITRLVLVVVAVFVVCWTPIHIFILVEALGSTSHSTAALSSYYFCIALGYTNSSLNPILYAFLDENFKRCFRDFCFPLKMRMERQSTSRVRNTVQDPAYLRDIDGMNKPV

Thromboxane A2 receptor [8] = molecular target: T3, Thromboxane A2 receptor
Note: assay procedure not described here.

Compound | AC50 [1] [µM] | AC50 (D(1A) dopamine receptor) [µM] | AC50 (Histamine H3 receptor [2]) [µM] | AC50 (Thromboxane A2 receptor [3]) [µM] | AC50 [4] [µM] | AC50 (Cannabinoid receptor 1) [µM] | AC50 (Histamine H3 receptor [5]) [µM] | AC50 [6] [µM] | AC50 [7] [µM] | AC50 (Thromboxane A2 receptor [8]) [µM]
C#C[C@]1(O)CC[C@H]2[C@@H]3CCC4=CC(=O)CC[C@@H]4[C@H]3CC[C@@]21CC [LEVONORGESTREL] | > 30 | > 30 | > 30 | > 30 | – | – | – | – | – | –
OC[C@@H](O)[C@@H](O)[C@H](O)[C@H](O)CO [MANNITOL] | > 30 | > 30 | > 30 | > 30 | – | – | – | – | – | –
CN1CCCC(CN2c3ccccc3Sc3ccccc32)C1 (stereo not drawn) [MEPAZINE] | 8.25 | 9.78 | 22.3 | > 10 | – | – | – | – | – | –
Sc1ncnc2nc[nH]c12 [MERCAPTOPURINE ANHYDROUS] | > 30 | > 30 | > 30 | > 30 | – | – | – | – | – | –
C[N+]1(C)[C@@H]2C[C@@H](OC(=O)[C@H](CO)c3ccccc3)C[C@H]1[C@@H]1O[C@@H]12 [METHSCOPOLAMINE] | > 30 | > 30 | > 30 | > 30 | – | – | – | – | – | –
CC(=O)Oc1c(C)cc(OCC(O)CNC(C)C)c(C)c1C (stereo not drawn) [METIPRANOLOL] | > 30 | > 30 | > 30 | > 30 | – | – | – | – | – | –
Cc1cccc(C)c1OCC(C)N (stereo not drawn) [MEXILETINE] | – | – | – | – | > 30 | > 30 | > 30 | – | – | –
O=C1CC[C@@]2(O)[C@H]3Cc4ccc(O)c5c4[C@@]2(CCN3CC2CC2)[C@H]1O5 [NALTREXONE] | > 30 | > 30 | > 30 | > 30 | – | – | – | – | – | –
CC(N/C(=N\C#N)Nc1ccncc1)C(C)(C)C (stereo not drawn) [PINACIDIL ANHYDROUS] | > 30 | > 30 | > 10 | > 30 | – | – | – | – | – | –
CC(O)CO (stereo not drawn) [PROPYLENE GLYCOL] | > 30 | > 30 | > 30 | > 30 | – | – | – | – | – | –
CN(C)C(=O)Oc1ccc[n+](C)c1 [PYRIDOSTIGMINE] | > 30 | > 30 | > 30 | > 30 | – | – | – | – | – | –
Cc1cc2c(cc1CC(=O)c1sccc1S(=O)(=O)Nc1onc(C)c1Cl)OCO2 [SITAXENTAN] | > 30 | > 30 | > 30 | > 10 | – | – | – | – | – | –
CC(C)OC(=O)[C@H](C)N[P@](=O)(OC[C@H]1O[C@@H](n2ccc(=O)[nH]c2=O)[C@](C)(F)[C@@H]1O)Oc1ccccc1 [SOFOSBUVIR] | > 30 | > 30 | > 30 | > 30 | – | – | – | – | – | –
CS(=O)(=O)c1ccc([C@@H](O)[C@@H](CO)NC(=O)C(Cl)Cl)cc1 [THIAMPHENICOL] | > 30 | > 30 | > 30 | > 30 | > 30 | > 30 | > 30 | > 30 | > 30 | > 30
Cc1ccc(O)c2ncccc12 [TILIQUINOL] | > 30 | > 30 | > 30 | > 30 | – | – | – | – | – | –
CC(=O)OC[C@H]1O[C@@H](n2ccc(=O)[nH]c2=O)[C@H](OC(C)=O)[C@@H]1OC(C)=O [URIDINE TRIACETATE] | > 30 | > 30 | > 30 | > 30 | – | – | – | – | – | –
CCOC(=O)N[C@@H]1CC[C@@H]2[C@@H](C1)C[C@H]1C(=O)O[C@H](C)[C@H]1[C@H]2/C=C/c1ccc(-c2cccc(F)c2)cn1 [VORAPAXAR] | > 30 | > 30 | > 10 | > 10 | – | – | – | – | – | –
